# Experiments:
# [1] = test system: permeability mutant strains of E. coli; assay: MIC of EtBr in presence and absence of EPI; format: cell-based
# Text: (§1) EtBr is a general substrate for many different efflux pumps in bacteria. Markham et al., “Multiple Novel Inhibitors of the NorA Multidrug Transporter of Staphylococcus aureus”, Antimicrob. Agents Chemother. 43:2404-2408 (1999). Since EtBr is a non-specific DNA intercalator, the only known mechanism of resistance to EtBr is via efflux. Markham et al., “Multiple Novel Inhibitors of the NorA Multidrug Transporter of Staphylococcus aureus”, Antimicrob. Agents Chemother. 43:2404-2408 (1999).
# [2] = test system: B. subtilis; assay: MIC of EtBr in presence and absence of EPI; format: cell-based; settings: B. subtilis wild type, EPI up to 100 μg/ml, data not shown
# Text: as §1
# [3] = test system: wild type gram negative organisms (E. coli, P. aeruginosa, and H. influenzae); assay: MIC of EtBr in presence and absence of EPI; format: cell-based; settings: all wild type gram-negative organisms, compared with gram-positive
# Text: as §1
# [4] = alone and in combination with chemotherapeutic agents for cancer therapies; cited from earlier work
# [5] = test system: S. aureus ATCC 29213; assay: MIC by NCCLS microdilution, antibacterial agents with and without EPI; format: cell-based; settings: at 100 μg/ml
# [6] = test system: S. aureus ATCC 29213; assay: Ethidium bromide efflux fluorescence assay; format: cell-based; settings: EPIs at 4 times MEC for EtBr, A-106 at 100 μg/ml; versus control cells without EPI
# Method: S. aureus cells were loaded with EtBr as described in Example 1. EPIs were used at 4XMEC (minimal effective concentration) (25 μg/ml reserpine; 100 μg/ml VX-710 (compound A-106 in Table A-2); 6.25 μg/ml VX-853 (compound C-9 in Table C-I), and no EPI control—as labeled). Fluorescence was continuously monitored over time at room temperature and results are an average of at least 3 replicates.
# Ethidium bromide (EtBr) efflux assays with S. aureus were performed using the method described by Markham et al. (Markham, et al., “Multiple Novel Inhibitors of the NorA Multidrug Transporter of Staphylococcus aureus”, Antimicrob. Agents Chemother. 43:2404-2408 (1999)). […] Ethidium bromide efflux was determined by continuously monitoring fluorescence at an excitation wavelength of 530 nm and an emission wavelength of 600 nm in a black 96-well polystyrene plate with clear, flat bottom (Costar #3904, Cambridge, Mass.) using a SpectraMax Gemini spectrofluorimeter (Molecular Devices, Sunnydale, Calif.). […]
# Markham et al., “Multiple Novel Inhibitors of the NorA Multidrug Transporter of Staphylococcus aureus”, Antimicrob. […] Since ethidium only fluoresces when it is bound to nucleic acid inside of cells, a decrease in fluorescence over time is due to active efflux. […]
# [7] = test system: E. faecalis clinical isolates; assay: MIC90 studies: fluoroquinolone susceptibility of clinical isolate panel with EPI; format: cell-based; settings: EPI at 50 μg/ml
# Outline: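 Fluoroquinolone MICs with efflux pump inhibitor measured against panels of resistant clinical isolates by NCCLS protocols. MIC90 taken across each panel. Oxacillin and vancomycin MICs run alongside to flag methicillin-resistant S. aureus and vancomycin-resistant E. faecalis isolates.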
# [8] = E. faecalis clinical isolate 10
# [9] = E. faecalis clinical isolate 11
# [10] = E. faecalis clinical isolate 12
# [11] = E. faecalis clinical isolate 13
# [12] = E. faecalis clinical isolate 14
# [13] = E. faecalis clinical isolate 15
# [14] = E. faecalis clinical isolate 16
# [15] = E. faecalis clinical isolate 17
# [16] = E. faecalis clinical isolate 18
# [17] = E. faecalis clinical isolate 19
# [18] = E. faecalis clinical isolate 20
# [19] = E. faecalis clinical isolate 21
# [20] = E. faecalis clinical isolate 22
# [21] = E. faecalis clinical isolate 23
# [22] = E. faecalis clinical isolate 24
# [23] = E. faecalis clinical isolate 25
# [24] = E. faecalis clinical isolate 26
structure (smiles),measurement,setting,value
COc1cc(C(=O)C(=O)N2CCCC[C@H]2C(=O)OC(CCCc2cccnc2)CCCc2cccnc2)cc(OC)c1OC [A-106],efflux inhibitory activity,[1],some efflux inhibitory activity was observed
same,reduction of the MIC of EtBr,[2],8 fold
same,activity against efflux of EtBr,[3],much less active
same,adverse events in clinical studies,[4],only mild adverse events
same,intrinsic antibacterial activity of EPI,[5],no intrinsic antibacterial activity
same,loss of EtBr fluorescence over time (FIG. 1),[6],much more gradual loss of fluorescence
same,Ciprofloxacin MIC with EPI,[7]; E. faecalis clinical isolate 1,0.5 µg/mL
same,Norfloxacin MIC with EPI,[7]; E. faecalis clinical isolate 1,2 µg/mL
same,Ciprofloxacin MIC with EPI,[7]; E. faecalis clinical isolate 2,0.5 µg/mL
same,Norfloxacin MIC with EPI,[7]; E. faecalis clinical isolate 2,1 µg/mL
same,Ciprofloxacin MIC with EPI,[7]; E. faecalis clinical isolate 3,32 µg/mL
same,Norfloxacin MIC with EPI,[7]; E. faecalis clinical isolate 3,64 µg/mL
same,Ciprofloxacin MIC with EPI,[7]; E. faecalis clinical isolate 4,32 µg/mL
same,Norfloxacin MIC with EPI,[7]; E. faecalis clinical isolate 4,64 µg/mL
same,Ciprofloxacin MIC with EPI,[7]; E. faecalis clinical isolate 5,32 µg/mL
same,Norfloxacin MIC with EPI,[7]; E. faecalis clinical isolate 5,64 µg/mL
same,Ciprofloxacin MIC with EPI,[7]; E. faecalis clinical isolate 6,0.5 µg/mL
same,Norfloxacin MIC with EPI,[7]; E. faecalis clinical isolate 6,1 µg/mL
same,Ciprofloxacin MIC with EPI,[7]; E. faecalis clinical isolate 7,0.5 µg/mL
same,Norfloxacin MIC with EPI,[7]; E. faecalis clinical isolate 7,1 µg/mL
same,Ciprofloxacin MIC with EPI,[7]; E. faecalis clinical isolate 8,32 µg/mL
same,Norfloxacin MIC with EPI,[7]; E. faecalis clinical isolate 8,64 µg/mL
same,Ciprofloxacin MIC with EPI,[7]; E. faecalis clinical isolate 9,1 µg/mL
same,Norfloxacin MIC with EPI,[7]; E. faecalis clinical isolate 9,2 µg/mL
same,Ciprofloxacin MIC with EPI,[7]; [8],16 µg/mL
same,Norfloxacin MIC with EPI,[7]; [8],32 µg/mL
same,Ciprofloxacin MIC with EPI,[7]; [9],16 µg/mL
same,Norfloxacin MIC with EPI,[7]; [9],64 µg/mL
same,Ciprofloxacin MIC with EPI,[7]; [10],0.5 µg/mL
same,Norfloxacin MIC with EPI,[7]; [10],1 µg/mL
same,Ciprofloxacin MIC with EPI,[7]; [11],0.5 µg/mL
same,Norfloxacin MIC with EPI,[7]; [11],1 µg/mL
same,Ciprofloxacin MIC with EPI,[7]; [12],0.25 µg/mL
same,Norfloxacin MIC with EPI,[7]; [12],0.5 µg/mL
same,Ciprofloxacin MIC with EPI,[7]; [13],1 µg/mL
same,Norfloxacin MIC with EPI,[7]; [13],2 µg/mL
same,Ciprofloxacin MIC with EPI,[7]; [14],1 µg/mL
same,Norfloxacin MIC with EPI,[7]; [14],2 µg/mL
same,Ciprofloxacin MIC with EPI,[7]; [15],0.5 µg/mL
same,Norfloxacin MIC with EPI,[7]; [15],2 µg/mL
same,Ciprofloxacin MIC with EPI,[7]; [16],32 µg/mL
same,Norfloxacin MIC with EPI,[7]; [16],64 µg/mL
same,Ciprofloxacin MIC with EPI,[7]; [17],1 µg/mL
same,Norfloxacin MIC with EPI,[7]; [17],2 µg/mL
same,Ciprofloxacin MIC with EPI,[7]; [18],0.5 µg/mL
same,Norfloxacin MIC with EPI,[7]; [18],2 µg/mL
same,Ciprofloxacin MIC with EPI,[7]; [19],0.5 µg/mL
same,Norfloxacin MIC with EPI,[7]; [19],1 µg/mL
same,Ciprofloxacin MIC with EPI,[7]; [20],32 µg/mL
same,Norfloxacin MIC with EPI,[7]; [20],64 µg/mL
same,Ciprofloxacin MIC with EPI,[7]; [21],32 µg/mL
same,Norfloxacin MIC with EPI,[7]; [21],32 µg/mL
same,Ciprofloxacin MIC with EPI,[7]; [22],16 µg/mL
same,Norfloxacin MIC with EPI,[7]; [22],32 µg/mL
same,Ciprofloxacin MIC with EPI,[7]; [23],32 µg/mL
same,Norfloxacin MIC with EPI,[7]; [23],64 µg/mL
same,Ciprofloxacin MIC with EPI,[7]; [24],32 µg/mL
same,Norfloxacin MIC with EPI,[7]; [24],64 µg/mL
same,trend in the reduction of MICs for ciprofloxacin and norfloxacin,"[7]; E. faecalis isolates, Table 5B",two-fold trend in the reduction of MICs
